Assay results reported in paper doi:10.1101/2020.10.02.321802v3 (bioRxiv, 2020).
Converted amounts (≈) assume the structure as drawn. Bridge positions count the residues as written; N and C are the ends. Square brackets hold non-standard residues; d marks the D form. Peptide text beside a SMILES is read from it. * marks the point of attachment. X1 = CC[C@H](C)CCCCC(=O)*; Dab = NCC[C@H](N)C(=O)O

Experiments:
E. coli MG1655 [1] = test: MIC and IC50 measurement; assay type: cell-based, Escherichia coli; conditions: for IC50 / MIC: OD590 after 16 hours
E. coli ATCC 25922 = test: MIC and IC50 measurement; assay type: cell-based, Escherichia coli; conditions: for IC50 / MIC: OD590 after 16 hours
P. aeruginosa PA14 = test: MIC and IC50 measurement; assay type: cell-based, Pseudomonas aeruginosa; conditions: for IC50 / MIC: OD590 after 16 hours
E. coli MG1655 [2] = test: Growth curves with single AMPs and combinations of AMPs; assay type: cell-based, Escherichia coli; conditions: single compound at the "full" concentration, 6 hours
[3] = system: wild-type strain (Keio deletion library); test: MIC and IC50 on Keio collection strains; assay type: cell-based, Escherichia coli
[4] = system: ΔrfaY deletion mutant (Keio deletion library); test: MIC and IC50 on Keio collection strains; assay type: cell-based, Escherichia coli
[5] = system: ΔlpxL deletion mutant (Keio deletion library); test: MIC and IC50 on Keio collection strains; assay type: cell-based, Escherichia coli
S. aureus ATCC 29213 = test: Selection of resistant mutants by serial passage, MIC per passage; assay type: cell-based, Staphylococcus aureus
[6] = ref Michod et al., 2009; cited from earlier work
[7] = BM2 Mg^high (BM2 with 2 mM MgSO4)
[8] = BM2 Mg^low (BM2 with 20 μM MgSO4)
[9] = LB Mg^high (LB with 2 mM MgSO4)
[10] = LB containing EDTA at concentrations that do not affect bacterial proliferation

Row | Molecule | IC50 (E. coli MG1655 [1]; [7]) | MIC (E. coli MG1655 [1]; [7]) | IC50 (E. coli MG1655 [1]; [8]) | MIC (E. coli MG1655 [1]; [8]) | MIC (E. coli MG1655 [1]; [9]) | MIC (E. coli MG1655 [1]; LB) | IC50 (E. coli MG1655 [1]; LB, GraphPad Prism 8) | IC50 (E. coli ATCC 25922; [9]) | MIC (E. coli ATCC 25922; [9]) | IC50 (E. coli ATCC 25922; LB) | MIC (E. coli ATCC 25922; LB) | IC50 (P. aeruginosa PA14; [7]) | MIC (P. aeruginosa PA14; [7]) | MIC (P. aeruginosa PA14; [8]) | MIC (P. aeruginosa PA14; [9]) | IC50 (P. aeruginosa PA14; LB) | MIC (P. aeruginosa PA14; LB) | growth inhibition (E. coli MG1655 [2]) | further results
1 | CC[C@H](C)CCCCC(=O)N[C@@H](CCN)C(=O)N[C@H](C(=O)N[C@@H](CCN)C(=O)N[C@H]1CCNC(=O)[C@H]([C@@H](C)O)NC(=O)[C@H](CCN)NC(=O)[C@H](CCN)NC(=O)[C@H](CC(C)C)NC(=O)[C@@H](Cc2ccccc2)NC(=O)[C@H](CCN)NC1=O)[C@@H](C)O [Polymyxin B, polymyxin B] (X1-[Dab]T[Dab][Dab][Dab][dF]L[Dab][Dab]T; lactam 4-C (inferred); N-terminus assumed) | 0.8 mg/L | 2 mg/L | 1.0 mg/L | 2 mg/L | 2 mg/L | 1 mg/L | 0.6 mg/L | 2.7 mg/L | 4 mg/L | 1.8 mg/L | 2 mg/L | 0.5 mg/L | 1 mg/L | 4 mg/L | 2 mg/L | 2.1 mg/L | 4 mg/L | ~ 35% | impact of low magnesium in BM2 medium on MIC (E. coli MG1655 [1]; BM2 Mg^low vs BM2 Mg^high): no impact; effect of EDTA on MIC (E. coli MG1655 [1]; [10]): less affected; effect of soluble LPS on efficacy (MIC) (E. coli MG1655 [1]; LB containing purified E. coli LPS, averages of two independent experiments): greatly diminishes the efficacy; effect of EDTA on MIC (E. coli ATCC 25922; [10]): less affected; increase of MIC by low magnesium in BM2 medium (P. aeruginosa PA14; BM2 Mg^low vs BM2 Mg^high): 4 fold
2 | melittin |  |  |  |  |  |  |  |  |  |  |  |  |  |  |  |  |  | ~ 20% | 
3 | CSCC[C@@H](NC(=O)[C@@H](Cc1c[nH]c2ccccc12)NC(=O)[C@H](NC(=O)[C@H](NC(=O)[C@@H](CC(N)=O)NC(=O)[C@@H](CC(C)C)NC(=O)[C@@H](CCCNC(=N)N)NC(=O)[C@H](NC(=O)[C@H](N)CC(=O)O)[C@H](C)O)[C@H](C)O)C(C)C)C(=O)N[C@H](Cc1c[nH]c2ccccc12)C(=O)NCC(=O)NCC(=O)N[C@H](CCCNC(=N)N)C(=O)N[C@H](CCCNC(=N)N)C(=O)N[C@H](CCCNC(=N)N)C(=O)N[C@H](CCC(N)=O)C(=O)N[C@H](CCCNC(=N)N)C(=O)N[C@H](CCCNC(=N)N)C(=O)N[C@H](CCCCN)C(=O)N[C@H](CCCCN)C(=O)N[C@H](CCCNC(=N)N)C(=O)NCC(=O)O [TAT-RasGAP317-326] (H-[dD][dT][dR][dL][dN][dT][dV][dW][dM][dW]GG[dR][dR][dR][dQ][dR][dR][dK][dK][dR]G-OH) | 2 µM | 4 µM | 0.3 µM | 0.5 µM | 32 µM | 8 µM | 3 µM | 52 µM | 128 µM | 5.2 µM | 8 µM | 10.1 µM | 32 µM | 4 µM | 64 µM | 7.2 µM | 32 µM |  | IC50 (E. coli MG1655 [1]; [9]): 16.3 µM; IC50 (P. aeruginosa PA14; [8]): 1.7 µM; IC50 (P. aeruginosa PA14; [9]): 20.8 µM; IC50 ([3]; Strain 1): 4.1 µM; MIC ([3]; Strain 1): 7.5 µM (≈ 21.1 µg/mL); IC50 ([3]; Strain 2): 4.8 µM; MIC ([3]; Strain 2): 7.5 µM (≈ 21.1 µg/mL); IC50 ([4]; Strain 1): 7.1 µM; MIC ([4]; Strain 1): 10 µM (≈ 28.1 µg/mL); IC50 ([4]; Strain 2): 7.8 µM; MIC ([4]; Strain 2): 10 µM (≈ 28.1 µg/mL); IC50 ([5]; Strain 1): 2 µM; MIC ([5]; Strain 1): 2.5 µM (≈ 7.04 µg/mL); IC50 ([5]; Strain 2): 2.2 µM; MIC ([5]; Strain 2): 2.5 µM (≈ 7.04 µg/mL); MIC after selection (S. aureus ATCC 29213; S. aureus passaged in presence of peptide, rapidly increased): 256 µM; MIC of the parental strain (S. aureus ATCC 29213; parental strain of S. aureus): 64 to 128 µM; biodistribution and clearance [6]: poor biodistribution and rapid clearance
